Data taken from PMC11767309 (Molecules, 2025).

Columns and labels:
[1] = biological target: T1, acetylcholinesterase (AChE) (Electrophorus electricus, UniProt O42275); test: biochemical; set-up: species or system electric eel; conditions: read-out: AChE Inhibition (%)
T1 construct: purchased Sigma Aldrich (St. Louis, MO, USA)

[2] = biological target: T2, butyrylcholinesterase (BChE) (Equus caballus, UniProt P81908); test: biochemical; set-up: species or system equine; conditions: for IC50: BChE IC50 (μM)
T2 construct: butyrylcholinesterase (BChE, E.C. from equine serum); purchased Sigma Aldrich (St. Louis, MO, USA); host or cells: equine serum
T2 sequence (P81908 whole entry): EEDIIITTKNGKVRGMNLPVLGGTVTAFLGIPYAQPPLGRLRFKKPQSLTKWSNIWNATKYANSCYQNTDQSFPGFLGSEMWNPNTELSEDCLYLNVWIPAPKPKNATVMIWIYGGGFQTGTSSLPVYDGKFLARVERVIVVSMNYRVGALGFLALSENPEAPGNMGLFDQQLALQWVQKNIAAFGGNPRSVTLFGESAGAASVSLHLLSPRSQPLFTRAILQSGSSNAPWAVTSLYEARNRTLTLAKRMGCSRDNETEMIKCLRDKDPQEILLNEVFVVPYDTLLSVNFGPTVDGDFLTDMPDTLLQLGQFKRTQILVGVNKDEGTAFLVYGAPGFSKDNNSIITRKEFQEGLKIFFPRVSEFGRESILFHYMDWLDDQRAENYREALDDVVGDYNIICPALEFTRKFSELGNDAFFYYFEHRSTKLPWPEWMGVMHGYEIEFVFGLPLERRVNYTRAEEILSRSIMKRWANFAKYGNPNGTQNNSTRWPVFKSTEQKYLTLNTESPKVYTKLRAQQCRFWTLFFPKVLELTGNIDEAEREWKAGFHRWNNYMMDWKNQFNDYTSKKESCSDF

[3] = Complex formation with Fe^3+, spectrophotometric titration; type: physicochemical; conditions: for Molar absorptivities at the longer-wavelength band maxima, ε: free ligand; for absorbance vs. ligand concentration plot: titration at constant Fe(III) content; for absorptivity of the complex higher than that of the ligand / molar absorptivity of the complex formed: complex with Fe^3+; for molar absorptivity of the complex formed: slope of absorbance vs. ligand concentration plot
Protocol: For this purpose, the following compounds were selected: 1, 3, 6 and 7. The Fe^3+ ions strongly hydrolyze, decreasing the pH of the aqueous system; thus, acidic solutions were used to study the possible complex formation via spectrophotometric titrations.
The absorption spectra used to determine the molar absorptivity and to evaluate the complex formation constant were recorded with a Specord S600 spectrophotometer (Analytic Jena GmbH, Jena, Germany) in the 190–900 nm wavelength range. During the titration, the ligand concentration was increased at a constant Fe(III) content.

BChE = conditions: selectivity BChE over AChE; cited from earlier work

T1 sequence (O42275 24-633): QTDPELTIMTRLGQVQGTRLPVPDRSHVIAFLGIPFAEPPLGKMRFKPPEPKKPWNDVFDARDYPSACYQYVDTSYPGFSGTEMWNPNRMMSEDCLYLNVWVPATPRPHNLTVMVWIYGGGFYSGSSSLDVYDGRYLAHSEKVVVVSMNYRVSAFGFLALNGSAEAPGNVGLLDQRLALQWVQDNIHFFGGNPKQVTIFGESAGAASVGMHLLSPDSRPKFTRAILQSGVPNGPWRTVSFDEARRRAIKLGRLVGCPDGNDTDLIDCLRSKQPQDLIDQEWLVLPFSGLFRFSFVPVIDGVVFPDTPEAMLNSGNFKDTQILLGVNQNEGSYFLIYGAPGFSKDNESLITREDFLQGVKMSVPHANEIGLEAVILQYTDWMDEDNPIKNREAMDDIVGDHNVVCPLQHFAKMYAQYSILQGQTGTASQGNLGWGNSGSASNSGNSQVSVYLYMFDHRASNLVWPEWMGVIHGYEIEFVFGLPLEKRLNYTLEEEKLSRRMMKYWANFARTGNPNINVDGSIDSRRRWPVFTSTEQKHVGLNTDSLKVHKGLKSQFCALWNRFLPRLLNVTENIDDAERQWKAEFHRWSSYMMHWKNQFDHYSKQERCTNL

CN(C)C(=O)Oc1ccccc1/C=C/c1cccs1 [Compound 1, (E)-2-(2-(thiophen-2-yl)vinyl)phenyl dimethylcarbamate]
inhibition at 100 µM [1]: 30%
IC50 [2]: 0.12 ± 0.09 µM
inhibition at 50 µM ([2]; read-out: BChE Inhibition (%)): 85%
Molar absorptivities at the longer-wavelength band maxima, ε [3]: 22,570 M^–1cm^–1
absorbance vs. ligand concentration plot [3]: no deviation from the straight line

Cc1ccc(OC(=O)N(C)C)c(/C=C/c2cccs2)c1 [Compound 2, (E)-4-methyl-2-(2-(thiophen-2-yl)vinyl)phenyl dimethylcarbamate]
inhibition at 100 µM [1]: 16.7%
IC50 [2]: 1.05 ± 0.09 µM
inhibition at 10 µM ([2]; read-out: BChE Inhibition (%)): 85%

CN(C)C(=O)Oc1ccc(F)cc1/C=C/c1cccs1 [Compound 3, (E)-4-fluoro-2-(2-(thiophen-2-yl)vinyl)phenyl dimethylcarbamate]
inhibition at 100 µM [1]: 12.6%
IC50 [2]: 1.48 ± 0.36 µM
inhibition at 100 µM ([2]; read-out: BChE Inhibition (%)): 85%
absorptivity of the complex higher than that of the ligand [3]: about 26%
molar absorptivity of the complex formed [3]: 13,200 M^−1 cm^−1
Molar absorptivities at the longer-wavelength band maxima, ε [3]: 10,440 M^–1cm^–1

CN(C)C(=O)Oc1ccc(Cl)cc1/C=C/c1cccs1 [Compound 4, (E)-4-chloro-2-(2-(thiophen-2-yl)vinyl)phenyl dimethylcarbamate]
inhibition at 100 µM [1]: 35%
IC50 [2]: 2.83 ± 0.03 µM
inhibition at 25 µM ([2]; read-out: BChE Inhibition (%)): 85.3%

COc1ccc(OC(=O)N(C)C)c(/C=C/c2cccs2)c1 [Compound 5, (E)-4-methoxy-2-(2-(thiophen-2-yl)vinyl)phenyl dimethylcarbamate]
inhibition at 100 µM [1]: 11%
IC50 [2]: 11.6 ± 0.18 µM
inhibition at 100 µM ([2]; read-out: BChE Inhibition (%)): 84%

COc1ccc(/C=C/c2cccs2)c(OC(=O)N(C)C)c1 [Compound 6, (E)-5-methoxy-2-(2-(thiophen-2-yl)vinyl)phenyl dimethylcarbamate]
inhibition at 100 µM [1]: 1%
IC50 [2]: 0.9 ± 0.14 µM
inhibition at 25 µM ([2]; read-out: BChE Inhibition (%)): 84.4%
absorptivity of the complex higher than that of the ligand [3]: ca. 64%
molar absorptivity of the complex formed [3]: about 26,700 M^−1 cm^−1
Molar absorptivities at the longer-wavelength band maxima, ε [3]: 16,330 M^–1cm^–1

Cc1ccc(/C=C/c2ccccc2OC(=O)N(C)C)s1 [Compound 7, (E)-2-(2-(5-methylthiophen-2-yl)vinyl)phenyl dimethylcarbamate]
inhibition at 100 µM [1]: 17.7%
IC50 [2]: 0.38 ± 0.01 µM
inhibition at 25 µM ([2]; read-out: BChE Inhibition (%)): 86.3%
Molar absorptivities at the longer-wavelength band maxima, ε [3]: 19,410 M^–1cm^–1
absorbance vs. ligand concentration plot [3]: no deviation from the straight line

Cc1ccc(OC(=O)N(C)C)c(/C=C/c2ccc(C)s2)c1 [Compound 8, (E)-4-methyl-2-(2-(5-methylthiophen-2-yl)vinyl)phenyl dimethylcarbamate]
inhibition at 100 µM [1]: 25.2%
IC50 [2]: 25.5 ± 0.21 µM
inhibition at 100 µM ([2]; read-out: BChE Inhibition (%)): 72.5%

Cc1ccc(/C=C/c2cc(F)ccc2OC(=O)N(C)C)s1 [Compound 9, (E)-4-fluoro-2-(2-(5-methylthiophen-2-yl)vinyl)phenyl dimethylcarbamate]
inhibition at 100 µM [1]: 23.6%
IC50 [2]: 15 ± 2.32 µM
inhibition at 100 µM ([2]; read-out: BChE Inhibition (%)): 85.2%

Cc1ccc(/C=C/c2cc(Cl)ccc2OC(=O)N(C)C)s1 [Compound 10, (E)-4-chloro-2-(2-(5-methylthiophen-2-yl)vinyl)phenyl dimethylcarbamate]
inhibition at 100 µM [1]: 27%
IC50 [2]: 23.2 ± 3.78 µM
inhibition at 100 µM ([2]; read-out: BChE Inhibition (%)): 85.7%

CN(C)C(=O)Oc1cccc(/C=C/c2cccs2)c1 [Compound 11, (E)-3-(2-(thiophen-2-yl)vinyl)phenyl dimethylcarbamate]
inhibition at 100 µM [1]: 19%
IC50 [2]: 11.4 ± 2.48 µM
inhibition at 100 µM ([2]; read-out: BChE Inhibition (%)): 83.4%

Cc1cnc(/C=C/c2cc(F)ccc2OC(=O)N(C)C)s1 [Compound 12, (E)-4-fluoro-2-(2-(5-methylthiazol-2-yl)vinyl)phenyl dimethylcarbamate]
inhibition at 100 µM [1]: 23.9%
IC50 [2]: 23.4 ± 2.43 µM
inhibition at 100 µM ([2]; read-out: BChE Inhibition (%)): 81.4%

Cc1cnc(/C=C/c2cc(Cl)ccc2OC(=O)N(C)C)s1 [Compound 13, (E)-4-chloro-2-(2-(5-methylthiazol-2-yl)vinyl)phenyl dimethylcarbamate]
inhibition at 100 µM [1]: 37.5%
IC50 [2]: 3.77 ± 0.13 µM
inhibition at 50 µM ([2]; read-out: BChE Inhibition (%)): 84.1%

cymserine
more effective as a BChE inhibitor compared to AChE (BChE): 15 times
